This note sets out measurements from US10047084B2, “Imidazolone derivatives, pharmaceutical compositions and uses thereof” (BEIJING FORELANDPHARMA CO. LTD., priority 2013, dated 2018).

Holding throughout (type): cell-based
For experiment [1], the system named is PC-3. The experiment in a line: CTG cell survival assay, PC-3. The conditions noted are these: Homo sapiens, PC-3 cells. From the text: (§1) 2. CTG Cell Survival Assay:
(§2) ATP is necessarily produced during the metabolic activities of viable cells, and there is a linear relationship between the content of ATP and the number of viable cells. Cell viability assay by CTG chemiluminescence is a general method for detecting the number of viable cells in the culture cells based on this principle. The addition of the CellTiter-Glo (CTG) reagent may induce cell lysis and produce chemiluminescent signals directly proportional to the amount of ATP in the well-plate, and thereby the cell proliferation activity in the well-plate can be measured by the reading values from the chemiluminescence.
(§3) 2.1 Experimental Materials and Instruments:
(§4) 2.4 Experimental Procedure: • 1.4.1 Cell Thawing: Cryogenic vials were removed from the liquid nitrogen container, directly immersed in a water bath at 37° C., and shaked from time to time to thaw. The cryogenic vials were removed from the water bath at 37° C., and transferred to the biosafe cabinet. Their lids were opened, and the cell suspensions were aspirated with pipettes, added to centrifuge tubes, and then added with more than 10 volumes of culture solution, mixed well; centrifuged for 5 min at 1000 rpm; the supernatant was discarded, and medium containing cell growth was added to resuspend cells. All cell suspensions were seeded to the T25 culture flasks and static cultured in an incubator at 37° C.; the culture solution were changed once on the next day, and continued to be cultured. • 2.4.2 Cell Passaging: After cells were grown to logarithmic phase and were 80%-90% confluent, cells were removed and placed in the biosafe cabinet, the old culture solution was discarded, and the cells were wetted and washed with PBS once or twice. An appropriate amount of 0.25% Trypsin-EDTA solution was added to the culture flasks. The flasks were placed in the carbon dioxide incubator at 37° C. for 2-5 min. An appropriate amount of cell growth medium containing 10% PBS was added to terminate the digestion, lightly swished, and transferred to the centrifuge tubes and centrifuged for 5 min at 1000 rpm. The cells were prepare (into cell suspensions for passaging and experimental use. • 2.4.3 Cell Plating • 2.4.3.1 A cell suspension was prepared: After cells were grown to logarithmic phase and were 80%-90% confluent, the cells were removed to the biosafe cabinet, and the old culture solution was discarded, then the cells were wetted and washed with PBS once or twice. An appropriate amount of 0.25% Trypsin-EDTA solution was added to the culture flask. The flask was placed in a carbon dioxide incubator at 37° C. for 2-5 min. An appropriate amount of the cell growth medium containing 10% PBS was added to terminate digestion, and was lightly swished. The solution was transferred to a centrifuge tube, centrifuged for 5 min at 1000 rpm, and counted. […] Secondly, 20 uM of the compound to be tested was diluted with the cell growth medium containing 0.2% DMSO in 3-fold dilution to obtain 9 concentrations, and there were 10 concentration gradients in total. • 2.4.4.3 Addition of the compounds to be tested: the prepared gradient dilution solutions of compounds to be tested were taken and added to the cell culture plate at 100 ul/well; at this point, the maximum concentration of compounds to be tested was 10 uM, and the concentration of DMSO was 0.1%.

Experiment [2] deals with MV-4-11. The experiment in a line: CTG cell survival assay, MV-4-11. The conditions noted are these: Homo sapiens, MV4-11, MV-4-11 cells.
Source text: as §1, §2, §3
2.1.1 Experimental Materials: compounds to be tested, cell basal culture medium, RPMI Medium 1640 (Invitrogen, Cat#11875-093), fetal calf serum (FBS): Hyclone FETAL BOVINE SERUM DEFINED (Invitrogen, Cat#SH30070.03), antibiotics: Penicilin Streptomycin (Invitrogen, Cat#15140-122), phosphate buffer (Corning Cellgro, Cat#R21-040-CV), cell digestive solution: 0.25% Trypsin-EDTA (Invitrogen, Cat#25200-056), CTG detection kit: Promega, Cat#G7571, flat-bottom 96-well black bottom plate: NUNC, Cat#165305, T25 culture flask: NUNC, Cat#156367, T75 culture flask: NUNC, Cat#156439
2.2 Experimental Instruments: Carbon Dioxide Incubator, SANYO-MCO-20AIC, Biosafe Cabinet: BSC-1360-LIIA2, Table-Top High-Speed Refrigerated Centrifuge: SorvallST 16R, Microplate Rapid Oscillator: QB-9001, M3 Reader: SpectraMax M3, Microscope: OLYMPUS-CKX41/CKX31.
2.3 Preparation of Solutions and Reagents: Formulation of cell growth medium: RPMI Medium 1640+10% FBS+antibiotics, others: trypsin digestive solution, phosphate buffer (PBS), DMSO, CTG detection kit.
2.4 Experimental Procedure: • 1.4.1 Cell Thawing: Cryogenic vials were removed from the liquid nitrogen container, directly immersed in a water bath at 37° C., and shaked from time to time to thaw. The cryogenic vials were removed from the water bath at 37° C., and transferred to the biosafe cabinet. Their lids were opened, and the cell suspensions were aspirated with pipettes, added to centrifuge tubes, and then added with more than 10 volumes of culture solution, mixed well; centrifuged for 5 min at 1000 rpm; the supernatant was discarded, and medium containing cell growth was added to resuspend cells. All cell suspensions were seeded to the T25 culture flasks and static cultured in an incubator at 37° C.; the culture solution were changed once on the next day, and continued to be cultured. • 2.4.2 Cell Passaging: After cells were grown to logarithmic phase and were 80%-90% confluent, cells were removed and placed in the biosafe cabinet, the old culture solution was discarded, and the cells were wetted and washed with PBS once or twice. An appropriate amount of 0.25% Trypsin-EDTA solution was added to the culture flasks. The flasks were placed in the carbon dioxide incubator at 37° C. for 2-5 min. An appropriate amount of cell growth medium containing 10% PBS was added to terminate the digestion, lightly swished, and transferred to the centrifuge tubes and centrifuged for 5 min at 1000 rpm. The cells were prepare (into cell suspensions for passaging and experimental use. • 2.4.3 Cell Plating • 2.4.3.1 A cell suspension was prepared: After cells were grown to logarithmic phase and were 80%-90% confluent, the cells were removed to the biosafe cabinet, and the old culture solution was discarded, then the cells were wetted and washed with PBS once or twice. An appropriate amount of 0.25% Trypsin-EDTA solution was added to the culture flask. The flask was placed in a carbon dioxide incubator at 37° C. for 2-5 min. An appropriate amount of the cell growth medium containing 10% PBS was added to terminate digestion, and was lightly swished. The solution was transferred to a centrifuge tube, centrifuged for 5 min at 1000 rpm, and counted. […]

In experiment [3] the test system is SK-BR3/BT474. Description: CTG cell survival assay, SK-BR3/BT474. The conditions noted are these: SK-BR3/BT474 cells.
Source text: as §1, §2, §3, §4

A word on the EC50: it is the concentration giving half of the maximal effect. Higher therefore signals weaker potency.

With `Cn1cc(-c2ccc(-c3ccc4ncc5c(c4c3)n([C@H]3CCN(S(C)(=O)=O)C3)c(=O)n5C)cn2)nn1` [Example 45, (S)-3-methyl-8-(6-(1-methyl-1H-1,2,3-triazol-4-yl)pyridin-3-yl)-1-(1-(methanesulfonyl)pyrrolidin-3-yl)-1H-imidazo quinolin-2(3H)-one], the EC50 in experiment [1] is under 0.01 µM; in experiment [2], under 0.02 µM; in experiment [3], under 0.02 µM.

`Cn1ccc(-c2ccc(-c3ccc4ncc5c(c4c3)n([C@H]3CCN(S(C)(=O)=O)C3)c(=O)n5C)cn2)n1` [Example 47, (S)-3-methyl-8-(6-(1-methyl-1H-pyrazol-3-yl)pyridin-3-yl)-1-(1-(methanesulfonyl)pyrrolidin-3-yl)-1H-imidazo[4,5-c]quinolin-2(3H)-one]: the EC50 in experiment [1] was 0.03 µM; in experiment [2], under 0.1 µM; in experiment [3], 0.04 µM.

`Cn1cc(-c2ccc(-c3ccc4ncc5c(c4n3)n([C@@H]3CCCN(S(C)(=O)=O)C3)c(=O)n5C)cn2)cn1` [Example 49, (R)-3-methyl-8-(6-(1-methyl-1H-pyrazol-4-yl)pyridin-3-yl)-1-(1-(methanesulfonyl)piperidin-3-yl)-1H-imidazo[4,5-c][1,5]naphthyridin-2(3H)-one]: the EC50 in experiment [1] is 0.01 µM; in experiment [2], under 0.02 µM; in experiment [3], 0.02 µM.

As to `Cn1cc(-c2ccc(-c3ccc4ncc5c(c4n3)n([C@H]3CCN(S(C)(=O)=O)C3)c(=O)n5C)cn2)nn1` [Example 50, (S)-3-methyl-8-(6-(1-methyl-1H-1,2,3-triazol-4-yl)pyridin-3-yl)-1-(1-(methanesulfonyl)pyrrolidin-3-yl)-1H-imidazo[4,5-c][1,5]naphthyridin-2(3H)-one], the EC50 is 0.02 µM in experiment [1], under 0.03 µM in experiment [2] and 0.03 µM in experiment [3].

As for `Cn1cc(-c2ccc(-c3ccc4ncc5c(c4c3)n([C@H]3CC[C@@H](O)CC3)c(=O)n5C)cn2)nn1` [Example 51, 1-((1s,4s)-4-hydroxycyclohexyl)-3-methyl-8-(6-(1-methyl-1H-1,2,3-triazol-4-yl)pyridin-3-yl)-1H-imidazo[4,5-c]quinolin-2(3H)-one], the EC50 was under 0.01 µM in experiment [1], under 0.02 µM in experiment [2] and 0.01 µM in experiment [3].

Take `CCNC(=O)N1CCC[C@@H](n2c(=O)n(C)c3cnc4ccc(-c5ccc(-c6cnn(C)c6)nc5)cc4c32)C1` [Example 55, (R)—N-ethyl-3-(3-methyl-8-(6-(1-methyl-1H-pyrazol-4-yl)pyridin-3-yl)-2-oxo-2,3-dihydro-1H-imidazo[4,5-c]quinolin-1-yl)piperidine-1-formamide]: the values for the EC50 in experiment [1], in experiment [2] and in experiment [3] were 0.3 µM, 0.8 µM and 0.3 µM, respectively.

With `Cn1cc(-c2ccc(-c3ccc4ncc5c(c4c3)n([C@@H]3CCCN(S(=O)(=O)C(F)(F)F)C3)c(=O)n5C)cn2)cn1` [Example 56, (R)-3-methyl-8-(6-(1-methyl-1H-pyrazol-4-yl)pyridin-3-yl)-1-(1-((trifluoromethyl)sulfonyl)piperidin-3-yl)-1H-imidazo[4,5-c]quinolin-2(3H)-one], the concentration giving a half-maximal response (EC50) in experiment [1] was under 0.03 µM; in experiment [2], 0.06 µM; in experiment [3] it was 0.07 µM.

As to `Cn1cc(-c2ccc(-c3ccc4ncc5c(c4c3)n(C3CCN(S(C)(=O)=O)CC3)c(=O)n5C)cn2)cn1` [Example 59, 3-methyl-8-(6-(1-methyl-1H-pyrazol-4-yl)pyridin-3-yl)-1-(1-(methanesulfonyl)piperidin-4-yl)-1H-imidazo[4,5-c]quinolin-2(3H)-one], the EC50 in experiment [1] was 0.03 µM; in experiment [2], 0.1 µM; in experiment [3], under 0.1 µM.

Turning to `Cn1cc(-c2ccc(-c3ccc4ncc5c(c4c3)n(C3CCN(S(C)(=O)=O)CC3)c(=O)n5C)cn2)nn1` [Example 60, 3-methyl-8-(6-(1-methyl-1H-1,2,3-triazol-4-yl)pyridin-3-yl)-1-(1-(methanesulfonyl)piperidin-4-yl)-1H-imidazo[4,5-c]quinolin-2(3H)-one], the EC50 in experiment [1] was under 0.03 µM; in experiment [2], under 0.1 µM; in experiment [3], 0.04 µM.

As for `Cn1cc(-c2ccc(-c3ccc4ncc5c(c4c3)n(C3CC4CCC(C3)N4S(C)(=O)=O)c(=O)n5C)cn2)nn1` (stereo not drawn) [Example 61, 3-methyl-8-(6-(1-methyl-1H-1,2,3-triazol-4-yl)pyridin-3-yl)-1-(8-(methanesulfonyl)-8-azabicyclo[3.2.1]octan-3-yl)-1H-imidazo[4,5-c]quinolin-2(3H)-one], the results for the EC50 in experiment [1], in experiment [2] and in experiment [3] were under 0.01 µM, under 0.02 µM and under 0.01 µM, respectively.

Take `Cn1cc(-c2ccc(-c3ccc4ncc5c(c4c3)n(C3CC4CCC(C3)N4S(C)(=O)=O)c(=O)n5C)cn2)cn1` (stereo not drawn) [Example 62, 3-methyl-8-(6-(1-methyl-1H-pyrazol-4-yl)pyridin-3-yl)-1-(8-(methanesulfonyl)-8-azabicyclo[3.2.1]octan-3-yl)-1H-imidazo[4,5-c]quinolin-2(3H)-one]: the values for the EC50 in experiment [1], in experiment [2] and in experiment [3] were under 0.01 µM, under 0.02 µM and under 0.02 µM, respectively.
